Marks after values point to notes of the source that are not given here. Bounds are passed on as bounds.

We go through nine molecules from paper PMC4206749 (Toxicological Research, 2014).

In data set [1] the test system is Salmonella typhimurium strain TA1535. In words: Bacterial reverse mutation assay. Type of data set: cell-based.
The test system of data set [2] is Salmonella typhimurium strain TA100. The data set can be described thus: Bacterial reverse mutation assay. Type of data set: cell-based.
Data set [3] has as its system Salmonella typhimurium strain TA1537. The data set can be described thus: Bacterial reverse mutation assay. Type of data set: cell-based.
The test system of data set [4] is Escherichia coli strain (WP2 uvrA). In words: Bacterial reverse mutation assay. Type of data set: cell-based. The settings on record: E. coli.
Data set [5] has as its system Salmonella typhimurium strain TA98. The data set can be described thus: Bacterial reverse mutation assay. Type of data set: cell-based.
In data set [6] the test system is L5178Y Tk^+/− mouse lymphoma cells. In words: In vitro comet assay. Type of data set: cell-based. The settings on record: for % DNA in tail / Olive moment / Tail length / Tail moment: 4 hr; for Comet parameters compared to vehicle: p < 0.05.
In data set [7] the test system is CHL cells (Chinese hamster lung fibroblast cell line). The data set can be described thus: In vitro chromosomal aberration assay. In kind it is cell-based.
Data set [8] has as its system S. typhimurium strain TA100 and TA98, E. coli strain WP2uvrA. Conditions: presence and absence of the S9 mix, 0.02~5000 μg per plate; cited from earlier work.
Setting [9] is: positive control 35 μg/ml with S9 mix.
[10] abbreviates: positive control 10 μg/ml, with metabolic activation, short term treatment.
Setting [11] is: positive control 15 μg/ml without S9 mix.

As to `Nc1ccc2cc3ccccc3cc2c1` [2-AA, 2-aminoanthracene, reference compound], the “Number of reverse mutants/plate (Mean ± SD)” value in data set [1] (TA1535, with S9 activation, positive control 2.0 μg/plate) is 156 ± 6 reverse mutants/plate; in data set [2] (TA100, with S9 activation, positive control 1.0 μg/plate), 598 ± 20 reverse mutants/plate; in data set [3] (TA1537, with S9 activation, positive control 2.0 μg/plate) it was 118 ± 16 reverse mutants/plate; in data set [4] (with S9 activation, positive control 10 μg/plate) it was 428 ± 21 reverse mutants/plate; in data set [5] (TA98, with S9 activation, positive control 0.5 μg/plate), 232 ± 9 reverse mutants/plate.
Regarding `Nc1c2ccccc2nc2ccccc12` [9-AA, 9-aminoacridine, reference compound], the “Number of reverse mutants/plate (Mean ± SD)” value in data set [3] (TA1537, without S9 activation, positive control 80 μg/plate) is given as 151 ± 11 reverse mutants/plate.
In the case of `NC(=O)C(=Cc1ccc([N+](=O)[O-])o1)c1ccco1` [AF-2, 2-(2-furyl)-3-(5-nitro-2-furyl) acrylamide, reference compound], the “Number of reverse mutants/plate (Mean ± SD)” value in data set [2] (TA100, without S9 activation, positive control 0.01 μg/plate) amounted to 425 ± 23 reverse mutants/plate; in data set [4] (without S9 activation, positive control 0.01 μg/plate) it was 334 ± 23 reverse mutants/plate; in data set [5] (TA98, without S9 activation, positive control 0.1 μg/plate), 278 ± 20 reverse mutants/plate.
In the case of `c1ccc2c(c1)cc1ccc3cccc4ccc2c1c34` [BaP, benzo(A)pryene, reference compound], in data set [6] (setting [9]), the “% DNA in tail” value was 49.14 ± 3.29 %, the Olive moment came out at 13.74 ± 1.97 μm, the Tail length is recorded as 80.29 ± 6.24 μm and the Tail moment is given as 42.15 ± 3.98 μm. For the same molecule, the “Comet parameters compared to vehicle” value in data set [6] (positive control with S9 mix) is reported as “increased significantly”.
Regarding `O=P1(N(CCCl)CCCl)NCCCO1` (stereo not shown) [CPA, cyclophosphamide, reference compound], in data set [7] (setting [10]), the “Total frequency (+) Gap” value is 132** % and the “Total frequency (−) Gap” value was 116** %. For the same molecule, in data set [7] (positive control, treatment with metabolic activation), the “Frequency of cells with chromosomal aberration” value was over 10%.
As to `CO[C@@]12[C@H](COC(N)=O)C3=C(C(=O)C(C)=C(N)C3=O)N1C[C@@H]1N[C@@H]12` [MMC, mitomycin C, reference compound], the Gap in data set [7] (positive control 0.5 μg/ml, continuous treatment, 200 cells) is 8.
Take `COS(C)(=O)=O` [MMS, methyl methansulfonate, reference compound]: in data set [6] (setting [11]), the “% DNA in tail” value came to 51.29 ± 4.26 %, the Olive moment stood at 14.68 ± 1.01 μm, the Tail length is on record as 97.21 ± 6.75 μm and the Tail moment was determined as 58.13 ± 6.12 μm. Moreover, the “Comet parameters compared to vehicle” value in data set [6] (positive control without S9 mix) is listed as “increased significantly”.
Turning to `[N-]=[N+]=[N-].[Na+]` [NaN3, sodium azide, reference compound], in data set [1] (TA1535, without S9 activation, positive control 0.5 μg/plate), the “Number of reverse mutants/plate (Mean ± SD)” value was found to be 151 ± 17 reverse mutants/plate.
For the molecule `Oc1ccc(/C=C/c2cc(O)cc(O)c2)cc1` [Resveratrol], the “Bacterial reverse mutation assay result” value in data set [8] is listed as “negative”.
